# Measurements from patent publication US7557092B2, “Purinergic modulation of smell” (University of Utah Research Foundation, priority 2002, dated 2009).
# Key:
# [1] = test system: ORNs in mouse olfactory epithelium slices; assay: confocal calcium imaging of fluo-4 AM loaded olfactory epithelium slices, ORNs; format: cell-based; conditions: 10 μM agonist superfused onto slice
# Text: To study the effects of ATP on odor responses, acutely prepared slices of mouse olfactory epithelium were used. Confocal imaging of fluo-4 AM-loaded olfactory epithelium slices allows simultaneous recording from identified structures within the olfactory epithelium, i.e., both ORNs and sustentacular cells. […] The difference in robustness can be due to poor access to the ATP stimulus: odorant receptors are on the cilia of the ORNs, which extend beyond the outer edge of the olfactory epithelium, whereas purinergic receptors are located deeper within the olfactory epithelium. […] The latency of activation for the ATP-evoked calcium transient was shorter in the ORN (FIG. 3B2, solid up arrowhead) than in sustentacular cells (FIG. 3B3, open down arrowhead). Collectively, this was consistent with ORNs expressing the faster P2X receptors, and the sustentacular cells expressing the slower G-protein coupled P2Y receptors.
# To prepare olfactory epithelium slices, neonatal mice (postnatal day 0-6) were quickly decapitated, and the skin and lower jaw were removed. Tissue was mounted in ice cold Ringers onto a vibratome-cutting block and 300 μm slices were made. Primary cultures of mouse ORNs were made using the same protocol and culture conditions as described for rat olfactory receptor neurons (Vargas and Lucero, 1999a). Briefly, tissue was placed in divalent cation-free Ringers containing 10 mg/ml bovine serum albumin, 1 mg/ml deoxyribonuclease II and 44 U/ml dispase, incubated at 37° C. for 45 min. The tissue was washed, triturated, and filtered through a […] mesh and […] cells were plated onto concanavalin A-coated coverslips and allowed to settle for 20 min. An additional 1.5 ml of culture medium was added (DMEM supplemented with […] ascorbic acid, 1X insulin-transferrin-seleniumX (GIBCO BRL), 2 mM glutamine, 100 U/ml penicillin G and […] streptomycin).
# [Ca^2+]i was determined using confocal imaging of fluo-4 AM (18 μM; Molecular Probes) loaded cells and slices. Cells or slices were placed in a laminar flow chamber (Warner Instruments) and perfused continuously with Ringers solution at a flow rate of 1.5-2.0 ml/min. Ringers contained (mM): 140 NaCl, 5 KCl, 1 MgCl2, 2 CaCl2, 10 HEPES, 10 glucose, […] and 400 nM tetrodotoxin. Test solutions were applied using bath exchange and a small volume loop injector (200 μl). A Zeiss LSM 510 confocal laser scanning system was used for data collection and analysis. Time series experiments were performed collecting 1400×700 pixel images at 0.2-0.4 Hz. The fluorometric signals obtained are expressed as relative fluorescence change, ΔF/F═(F−F0)/F0, where F0 is the basal fluorescence level. Increases in F greater than 10% above baseline noise were considered responses.
# [2] = target: P2Y4 (Homo sapiens, UniProt P51582); conditions: cDNA from Human chromosome X; cited from earlier work
# Chain of P2Y4 (P51582 whole entry): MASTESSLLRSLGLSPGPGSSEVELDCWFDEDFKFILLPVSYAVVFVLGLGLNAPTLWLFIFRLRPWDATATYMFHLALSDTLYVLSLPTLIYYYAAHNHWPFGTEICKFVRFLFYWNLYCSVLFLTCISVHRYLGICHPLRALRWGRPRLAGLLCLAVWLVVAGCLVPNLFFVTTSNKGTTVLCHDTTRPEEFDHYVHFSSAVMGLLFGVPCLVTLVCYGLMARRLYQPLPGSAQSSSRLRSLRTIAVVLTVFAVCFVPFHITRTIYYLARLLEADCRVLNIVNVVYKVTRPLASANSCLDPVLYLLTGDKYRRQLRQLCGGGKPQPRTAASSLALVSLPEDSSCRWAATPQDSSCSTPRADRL
# [3] = test system: ORNs in neonatal mouse OE slices; assay: on-cell current-clamp recording of cyclic nucleotide-induced electrical responses; format: cell-based; conditions: 10 μM ATP co-applied with cyclic nucleotide mixture (IBMX, CPT-cAMP, 8-Br-cGMP), n=3 cells
# Protocol: Filled triangles correspond to the time of loop injection of the test solutions. […] Various test solutions were superfused onto the slice for 30 seconds, indicated by the shaded region. The cell was allowed to recover for 7 minutes after each test application. Note that the coapplication of ATP (10 μM) and the mixture suppressed the evoked membrane potential changes. […] N=3 from three slices, also indicated in each column.
# Electro-olfactogram and on-cell recordings: Slices of P0-P6 mouse OE were prepared as described above and mounted in a perfusion chamber with a bath flow of […]. Test chemicals were introduced using a rotary injection valve (Rheodyne, Cotati, Calif.). The electro-olfactogram (EOG) recording electrode (3 M NaCl in 1% agar; tip diameter, 5-10 um) was positioned along the dorsal portion of the nasal septum. The differential electrode (identical to the recording electrode) was positioned over skull cartilage and an […] ground electrode was connected to the bath solution via a 3 M KCl agar bridge. […]
# For the noninvasive on-cell recordings (Chiu et al., 1997), the same electronics were used as described for nystatin-patch experiments. […] The time course of solution delivery was determined by placing an electrode in a slice and switching from Ringer's solution to distilled water. […]
smiles,measurement,setting,value
"Nc1ncnc2c1ncn2[C@@H]1O[C@H](COP(=O)(O)OP(=O)(O)OP(=O)(O)O)[C@@H](O)[C@H]1O [ATP, Adenosine 5′-triphosphate]",agonist-evoked calcium transients in ORNs,[1],evoked calcium transients from all 11 ORNs
same,Agonist activity,[2],UTP > UDP (ATP inactive)
same,reduction of the electrical activity of the ORN,[3],67±2%
